According to patent publication US9079858B2, “Rock kinase inhibitors” (Amakem NV, priority 2011, dated 2015):
Values belong to the molecule of their own block, whether it stands above or below them.

Experiments:
[1] = Stability assay in rabbit aqueous humor; type: in vitro ADME; settings: 1 μM in rabbit aqueous humor; for half-life at 1 μM: read-out: t½ Rabbit AH
Description: (§1) Compounds are incubated at a concentration of 1 μM in rabbit aqueous humor (AH) or rabbit vitreous (VH). Samples are taken at fixed time points and the remnant of compound is determined by LC-MS/MS after protein precipitation.

[2] = Stability assay in rabbit vitreous humor; type: in vitro ADME; settings: 1 μM in rabbit vitreous; for half-life at 1 μM: rabbit vitreous humor, read-out: t½ Rabbit VH
Description: as §1

human hepatocytes = assay: Stability assay in human hepatocytes; type: in vitro ADME; settings: 1 μM
Description: Compounds are incubated at a concentration of 1 μM with human hepatocytes (2 10^6 cells/ml in buffer solution). At fixed time points (ex: 1, 30, 60 & 120 minutes), an incubation mixture (200 μl) is cooled down on ice and 100 μl of acetonitrile is added. After vortex-mixing, the sample is centrifuged for 5 minutes at 16000 rpm. The remnant of compound in each sample is determined by LC-PDA-MS/MS analysis and half-life of the compound is subsequently calculated. Formation of the acid metabolite resulting from ester hydrolysis can be performed simultaneously. Peak areas for appearance of the acid are first recorded, and the corresponding concentrations are then back-calculated from calibration curve.
When evaluated under such conditions, compounds of the invention are rapidly degraded in the corresponding acid (primary metabolite).

[3] = Pharmacokinetics after intravenous and oral administration in mice; type: in vivo, male CD-1 mice
Description: The bioavailability of compound 1 was evaluated after intravenous and oral dosing in male CD-1 mice. The compound was dosed at 0.1 mg/kg intravenously and 1 mg/kg orally. Plasma levels were determined by LC-MS/MS and pharmacokinetic parameters were estimated by a non-compartmental model using WinNonlin v5.2.1 software.

Compound: COC(=O)c1ccc(NC(=O)c2cccc(-c3cc(C(=O)Nc4ccncc4F)ccc3CN)c2)c(F)c1 [Compound 2, methyl 4-({3-[2-(aminomethyl)-5-[(3-fluoropyridin-4-yl)carbamoyl]phenyl]phenyl}amido)-3-fluorobenzoate]
t½ Rabbit AH [1]: >1 h | t½ Rabbit VH [2]: >1 h

Compound: CCCOC(=O)c1ccc(NC(=O)c2cccc(-c3cc(C(=O)Nc4ccncc4F)ccc3CN)c2)cc1C [Compound 6, propyl 4-({3-[2-(aminomethyl)-5-[(3-fluoropyridin-4-yl)carbamoyl]phenyl]phenyl}amido)-2-methylbenzoate]
t½ Rabbit AH [1]: >1 h | t½ Rabbit VH [2]: >1 h

Compound: NCc1ccc(C(=O)Nc2ccncc2F)cc1-c1cccc(C(=O)Nc2ccc(C(=O)OCC3CCCO3)cc2)c1 (stereo not drawn) [Compound 10, oxolan-2-ylmethyl 4-({3-[2-(aminomethyl)-5-[(3-fluoropyridin-4-yl)carbamoyl]phenyl]phenyl}amido)benzoate]
t½ Rabbit AH [1]: >1 h | t½ Rabbit VH [2]: >1 h

Compound: COC(=O)c1ccc(C(=O)Nc2cccc(-c3cc(C(=O)Nc4ccncc4F)ccc3CN)c2)nc1 [Compound 8, methyl 6-({3-[2-(aminomethyl)-5-[(3-fluoropyridin-4-yl)carbamoyl]phenyl]phenyl}carbamoyl)pyridine-3-carboxylate]
half-life at 1 μM [1]: > 1 h | half-life at 1 μM [2]: > 1 h

Compound: CCCOC(=O)c1ccc(NC(=O)c2cccc(-c3cc(C(=O)Nc4ccncc4F)ccc3CN)c2)c(F)c1 [Compound 4, propyl 4-({3-[2-(aminomethyl)-5-[(3-fluoropyridin-4-yl)carbamoyl]phenyl]phenyl}amido)-3-fluorobenzoate]
t½ Rabbit AH [1]: >1 h | t½ Rabbit VH [2]: >1 h

Continued, in another order:

t½ Rabbit AH [1]: >1 h | t½ Rabbit VH [2]: >1 h
Compound: COCCOC(=O)c1ccc(NC(=O)c2cccc(-c3cc(C(=O)Nc4ccncc4F)ccc3CN)c2)cc1 [Compound 9, 2-methoxyethyl 4-({3-[2-(aminomethyl)-5-[(3-fluoropyridin-4-yl)carbamoyl]phenyl]phenyl}amido)benzoate]

half-life at 1 μM [1]: > 1 h | half-life at 1 μM [2]: > 1 h
Compound: COC(=O)c1ccc(C(=O)Nc2cccc(-c3cc(C(=O)Nc4ccncc4F)ccc3CN)c2)cc1 [Compound 7, methyl 4-({3-[2-(aminomethyl)-5-[(3-fluoropyridin-4-yl)carbamoyl]phenyl]phenyl}carbamoyl)benzoate]

t½ Rabbit AH [1]: >1 h | t½ Rabbit VH [2]: >1 h
Compound: COC(=O)c1ccc(NC(=O)c2cccc(-c3cc(C(=O)Nc4ccncc4F)ccc3CN)c2)cc1C [Compound 5, methyl 4-({3-[2-(aminomethyl)-5-[(3-fluoropyridin-4-yl)carbamoyl]phenyl]phenyl}amido)-2-methylbenzoate]

t½ Rabbit AH [1]: >1 h | t½ Rabbit VH [2]: >1 h
Compound: COC(=O)c1ccc(NC(=O)c2cccc(-c3cc(C(=O)Nc4ccncc4F)ccc3CN)c2)cc1F [Compound 3, methyl 4-({3-[2-(aminomethyl)-5-[(3-fluoropyridin-4-yl)carbamoyl]phenyl]phenyl}amido)-2-fluorobenzoate]

t1/2 in human hepatocytes (human hepatocytes): 0.233 h | % remaining (human hepatocytes; time 1 min): 100.0% | % remaining (human hepatocytes; time 30 min): 16.0 +/− 0.4% | % remaining (human hepatocytes; time 60 min): 4.8 +/− 0.1% | % remaining (human hepatocytes; time 120 min): 2.4 +/− 1.3% | t½ Rabbit AH [1]: >1 h | t½ Rabbit VH [2]: >1 h | AUClast (intravenous exposure) ([3]; intravenous 0.1 mg/kg): 4.82 ± 0.276 ng·h/mL | clearance ([3]; intravenous 0.1 mg/kg): 257 mL/min/kg | volume of distribution ([3]; intravenous 0.1 mg/kg): 100 L/kg | Cmax ([3]; intravenous 0.1 mg/kg, mouse plasma): 16.3 ng/mL | AUClast ([3]; oral 1 mg/kg): 6.20 ± 5.50 ng·h/mL | Cmax ([3]; oral 1 mg/kg): 22.4 ± 22 ng/mL | percent oral bioavailability ([3]; oral 1 mg/kg vs intravenous 0.1 mg/kg): 12.9%
Compound: COC(=O)c1ccc(NC(=O)c2cccc(-c3cc(C(=O)Nc4ccncc4F)ccc3CN)c2)cc1 [Compound 1, methyl 4-({3-[2-(aminomethyl)-5-[(3-fluoropyridin-4-yl)carbamoyl]phenyl]phenyl}amido)benzoate]
metabolism and excretion in words ([3]; mice, intravenous and oral): rapidly metabolized and excreted from the body very rapidly
